Laboratory results as given in publication PMC7355684 (Pharmaceutics, 2020).
Entries after “also recorded” stand apart in the source; their conditions may differ. Read-outs that look alike come from different tables or passages of the source. Where a SMILES comes first, the peptide text is derived from it. The star is where a group is joined. Daunorubicin(13-NOCH2CO) = COc1cccc2c1C(=O)c1c(O)c3c(c(O)c1C2=O)C[C@@](O)(C(C)=NOCC(=O)*)C[C@@H]3O[C@H]1C[C@H](N)[C@H](O)[C@H](C)O1

Legend:
PANC-1 cells = experiment: cells; format: cell-based, human
Description: This measurement is based on the registration of electrical resistance (impedance, Z) in alternating current (AC) field. The living cells transplanted to the gold measuring electrodes are physically insulated by phospholipid bilayer that covers them. This instrumentally measurable property changes (decreases) in response to cellular cytotoxic agents. Our measurements were performed on xCELLigence single plate (ACEA Biosciences, San Diego, CA, USA) dedicated for impedimetric analysis of cellular samples at 37 °C and 5% CO2.
During the initial phase of the experiments—the baseline recording—a special 96-well cell culture plate, E-plate (ACEA Biosciences), equipped with measuring electrodes, was pretreated with freshly prepared cell culture medium (for 60 min; sampling frequency: 1 min). Subsequently, PANC-1 cells were plated at a cell density of 10^4 cells/well. During the 24 h incubation, the cells evenly covered the electrodes at the bottom of the wells of the E-plate. The resulting confluent cell cultures were then treated with the test substances at the following final concentrations: 10^−6, 10^−5, 10^−4 M. Total treatment duration was 72 h and the sampling rate was 1 min (0–24 h); and then 15 min (48–72 h). In our measurements, three replicates were used, the control was the drug-free medium. […] The CI results were analyzed with xCELLigence RTCA 2.0 software and Origin Pro 8.0 software.

A2058 cells = format: cell-based, human
Description: (§1) EBC-1 and Colo-205 model cells have weak/negligible adherent properties, and A2058 cells could not produce constant cell index values. Therefore, a colorimetric assay (alamarBlue-assay) was chosen instead of the xCELLigence system to investigate the viability of these model cells treated with the conjugates. Due to the growth characteristics of NHDF cells, alamarBlue-assay was performed also on this cell line.
(§2) The protocol for the alamarBlue-assay was similar to the method which was published earlier, with some minor modifications. Briefly, the cell seeding occurred on 96-well cell culture plates (Sarstedt AG, Nümbrecht, Germany) at 10^4 cells/well concentration. After a 24 h long culturing period, the treatment was carried out with the conjugates at 10^−4, 10^−5 and 10^−6 M final concentrations for 24, 48 and 72 h. In the next steps, the alamarBlue reagent (0.15 mg/mL, Sigma-Aldrich) dissolved in phosphate-buffered saline (PBS; pH = 7.2), was added to the wells. After 6 h incubation with the reagent, the fluorescence intensity of the samples was obtained by an LS-50B Luminescence Spectrometer (Perkin Elmer Ltd., Buckinghamshire, UK) or a Fluoroskan^TM FL Microplate Fluorometer and Luminometer (Thermo Scientific, Waltham, MA, USA) by using the following settings: λex = 560 nm and λem = 590 nm.
(§3) Three parallels were performed per treatment group. In the case of controls, an equivalent volume of cell culture media was added to the cell. Fluorescence intensities of the samples treated with various concentrations of conjugates were expressed as a percentage of the fluorescence of control.

Colo-205 cells = format: cell-based, human
Description: as §1, §2, §3

EBC-1 cells = format: cell-based, human
Description: as §1, §2, §3

[1] = Lysosomal degradation of conjugates by LC-MS; format: in vitro ADME; conditions: rat liver lysosome homogenate, 0.2 M NaOAc pH 5.03, 0.025 μg/μL conjugate, 37 °C
Description: For the stability and metabolism studies of the conjugates, liquid chromatography–mass spectrometry (LC-MS) analyses were performed on a Q ExactiveTM Focus, high resolution and high mass accuracy, hybrid quadrupole-orbitrap mass spectrometer (Thermo Fisher Scientific, Bremen, Germany) using on-line UHPLC coupling. UHPLC separation was performed on a Dionex 3000 UHPLC system using a Supelco Ascentis C18 column (2.1 × 150 mm, 3 µm). Linear gradient elution (0 min 2% B, 1 min 2% B, 17 min 90% B) with eluent A (0.1% HCOOH in water, v/v) and eluent B (0.1% HCOOH in acetonitrile/water, 80:20, v/v) was used at a flow rate of 0.2 mL/min at 40 °C. High-resolution mass spectra were acquired in the 200–1600 m/z range. LC-MS data were analyzed by XcaliburTM software (Thermo Fisher Scientific) and with Origin Pro 8 (OriginLab Corp., Northampton, MA, USA).
Conjugates were dissolved in distilled water in 2.5 μg/μL concentration followed by dilution with 0.2 M NaOAc solution (pH = 5.03) to 0.025 μg/μL. The lysosome-homogenate was prepared from rat liver and contained proteins in 16.6 μg/μL concentration. An aliquot (20 μL) of this stock solution was further diluted with […] 0.2 M NaOAc solution, therefore the final protein concentration was 0.83 μg/μL. To prepare the reaction mixture, 15 μL (0.83 μg/μL) lysosome homogenate was added to 500 μL (0.025 μg/μL) conjugate solution. Furthermore, a control reaction mixture was always prepared which contained 500 μL conjugate solution and 15 μL NaOAc solution only. The solutions were stirred on 600 rpm at 37 °C and samples (50 μL) were taken out at 0 min, 5 min, 15 min, 30 min, 1 h, 2 h, 6 h, 24 h, and 72 h. The enzymatic activity was quenched by adding 5 μL formic acid to the samples. After this procedure, samples were frozen immediately at −25 °C. Control samples were taken at 0 min, 15 min, 1 h, 6 h, 24 h and 72 h. Composition of the samples was determined by HPLC-MS as described above.

[2] = lysosome-homogenate prepared from rat liver, in 0.2 M NaOAc solution (pH = 5.03); conditions: 37 °C, up to 72 h
[3] = alamarBlue fluorescence normalized to control wells, 10^-5 M, mean ± SD, n=3

COc1cccc2c1C(=O)c1c(O)c3c(c(O)c1C2=O)C[C@@](O)(C(C)=NOCC(=O)NCC(=O)N[C@@H](Cc1ccccc1)C(=O)N[C@@H](CC(C)C)C(=O)NCC(=O)N[C@@H](CCCCN)C(=O)N[C@@H](CO)C(=O)N[C@@H](CCCCN)C(=O)N[C@@H](C)C(=O)N[C@@H](C)C(=O)N[C@@H](CCCCN)C(=O)N[C@@H](CC(N)=O)C(=O)O)C[C@@H]3O[C@H]1C[C@H](N)[C@H](O)[C@H](C)O1 [conjugate 3, Dau=Aoa-GFLG-KSKAAKN-OH] ({Daunorubicin(13-NOCH2CO)}-GFLGKSKAAKN-OH)
Viability (%) at 10^−5 M Concentration, After 72 h Incubation (PANC-1 cells; PANC-1, impedimetry, cell index normalized to control wells, 10^−5 M, mean ± SD, n = 3): 105.1 ± 1.9% | Viability (%) at 10-5 M concentration, after 72 h incubation, A2058 (A2058 cells; [3]): 79.4 ± 17.6% | Viability (%) at 10-5 M concentration, after 72 h incubation, Colo-205 (Colo-205 cells; [3]): 59.3 ± 3.6% | Viability (%) at 10-5 M concentration, after 72 h incubation, EBC-1 (EBC-1 cells; [3]): 76.2 ± 13.7% | Time to complete lysosomal degradation ([1]; sampling up to 72 h): ≤ 1 h

Dau=Aoa-KSKAAKN-OH
fragment found [2]: Dau=Aoa-K-OH, minor, 30 min; also recorded: Dau=Aoa-KS-OH, 15 min; also recorded: Dau=Aoa-KSK-OH

Dau=Aoa-GFLG-KSKAAKN-OH
fragment found [2]: Dau=Aoa-GFL-OH; also recorded: Dau=Aoa-GFLGK-OH; also recorded: Dau=Aoa-GFLGKSK-OH, first_seen, 0 min; also recorded: Dau=Aoa-GFLGKSKAA-OH, first_seen, 0 min; also recorded: Dau=Aoa-G-OH, 30 min; also recorded: Dau=Aoa-GF-OH, major, 30 min

COc1cccc2c1C(=O)c1c(O)c3c(c(O)c1C2=O)C[C@@](O)(C(C)=NOCC(=O)N[C@@H](CO)C(=O)N[C@@H](CCCCN)C(=O)N[C@@H](C)C(=O)N[C@@H](C)C(=O)N[C@@H](CCCCN)C(=O)N[C@@H](CC(N)=O)C(=O)O)C[C@@H]3O[C@H]1C[C@H](N)[C@H](O)[C@H](C)O1 [conjugate 1, Dau=Aoa-SKAAKN-OH] ({Daunorubicin(13-NOCH2CO)}-SKAAKN-OH)
Viability after 24 h treatment at 10^−4 M (initial CI increase) (PANC-1 cells; 24 h, 1e-4 M): 224.1 ± 18.73% | Viability (%) at 10^−5 M Concentration, After 72 h Incubation (PANC-1 cells; 1e-5 M): 112.5 ± 5.1% | Viability (%) at 10-5 M concentration, after 72 h incubation, A2058 (A2058 cells; 1e-5 M): 61.5 ± 2.7% | Viability (%) at 10-5 M concentration, after 72 h incubation, Colo-205 (Colo-205 cells; 1e-5 M): 50.7 ± 1.6% | Viability (%) at 10-5 M concentration, after 72 h incubation, EBC-1 (EBC-1 cells; 1e-5 M): 77.8 ± 1.0%

Dau=Aoa-GFLG-K(Dau=Aoa-GFLG)SKAAKN-OH
fragment found [2]: Dau=Aoa-G-OH, minor; also recorded: Dau=Aoa-GF-OH; also recorded: Dau=Aoa-GFL-OH; also recorded: H-K(Dau=Aoa-GFLG)SK-OH; also recorded: H-K(Dau=Aoa-GFLG)SKAA-OH; also recorded: H-K(Dau=Aoa-GFLG)SKAAKN-OH

COc1cccc2c1C(=O)c1c(O)c3c(c(O)c1C2=O)C[C@@](O)(C(C)=NOCC(=O)N[C@@H](CO)C(=O)N[C@@H](CCCCN)C(=O)N[C@@H](C)C(=O)N[C@@H](C)C(=O)N[C@@H](CCCCN)C(=O)N[C@@H](CC(N)=O)C(=O)O)C[C@@H]3O[C@H]1C[C@H](N)[C@H](O)[C@H](C)O1 [conjugates 1] ({Daunorubicin(13-NOCH2CO)}-SKAAKN-OH)
Speed of lysosomal degradation (in words) [1]: very fast

Dau=Aoa-SKAAKN-OH
fragment found [2]: Dau=Aoa-S-OH, 0 min; also recorded: Dau=Aoa-SK-OH, 0 min

COc1cccc2c1C(=O)c1c(O)c3c(c(O)c1C2=O)C[C@@](O)(C(C)=NOCC(=O)N[C@@H](CCCCN)C(=O)N[C@@H](CO)C(=O)N[C@@H](CCCCN)C(=O)N[C@@H](C)C(=O)N[C@@H](C)C(=O)N[C@@H](CCCCN)C(=O)N[C@@H](CC(N)=O)C(=O)O)C[C@@H]3O[C@H]1C[C@H](N)[C@H](O)[C@H](C)O1 [conjugate 2, Dau=Aoa-KSKAAKN-OH] ({Daunorubicin(13-NOCH2CO)}-KSKAAKN-OH)
Speed of lysosomal degradation (in words) [1]: very fast
